Source: article PMC12196213, “New Insights into the Anticancer Effects and Toxicogenomic Safety of Two β-Lapachone Derivatives” (Pharmaceuticals, 2025)

Assays:
HeLa cells = experiment: Morphological analysis, rapid panoptic staining; format: cell-based, human; conditions: 72 h, at IC50 and 2 × IC50
Description: Following the screening of IC50 values and SI in solid tumor cells, indications of potential cell death were explored in the most sensitive cell line. The morphological changes were evaluated according to protocols previously published with modifications. Thus, HeLa cells were seeded in 12-well plates at a concentration of 4 × 10^5 cells/mL and incubated overnight for adhesion. […] After the treatment period, the medium was aspirated, and the plate was washed twice with PBS. The cells were fixed and stained using the Panoptic Rapid Kit following the manufacturer’s protocol. Morphological analyses were conducted to observe cellular alterations indicative of cell death, including cellular volume reduction, membrane integrity, karyolysis, pyknosis, karyorrhexis, apoptotic bodies, vacuoles, and cellular debris.

[1] = tested on: peripheral blood erythrocytes from Swiss mice; experiment: Alkaline comet assay in vivo; parameters: species or system Mus musculus; conditions: for damage frequency (comet assay) compared to negative control / damage index (comet assay) compared to negative control: intraperitoneally
Description: (§1) Forty female Mus musculus mice (Swiss strain) were used. The animals were divided into 8 groups, with 5 animals each: G1—negative control (NC) treated with the vehicle solution intraperitoneally; G2—positive control (PC) treated intraperitoneally with cyclophosphamide at a dose of 30 mg/kg; groups exposed to the BV3 derivative—Group BV3—I intraperitoneally at doses of 2000 mg/kg; Group BV3—II 1000 mg/kg; Group BV3—III 500 mg/kg; and groups exposed to BV5—Group BV5—I, received BV5 intraperitoneally at doses of 2000 mg/kg; Group BV5—II 1000 mg/kg; and Group BV5—III 500 mg/kg. For the comet assay, approximately 0.5 mL of blood from each animal was collected via the tail vein 6–8 h after administration of the compounds. For the micronucleus test, 1 mL of blood from each animal was collected by cardiac puncture 48 h after administration of the compounds. For that collection, the mice were anesthetized with ketamine (100 mg/kg) and xylazine (10 mg/kg), intraperitoneally. Immediately after blood collection, the animals were euthanized with high doses of anesthetics (ketamine 300 mg/kg and xylazine 30 mg/kg). The in vivo experiments were approved by the Ethics Committee on the Use of Animals (CEUA) of the Federal University of Pernambuco, under process no. 004/2023.
The female mice (n = 40) were equally distributed into 8 experimental groups; the groups were composed of 5 female animals each. After administering the solutions and compounds to the groups, blood samples were taken 6 and 8 h after treatment. Subsequently, 15 µL of blood was used, which was homogenized with 100 µL of low-melting-point agarose (LM agarose) and subsequently deposited on slides previously prepared with standard agarose. The slides were covered with coverslips and left at 4 °C for 10 min. After refrigeration, the coverslips were removed and the slides were placed in a lysis solution (2.5 M NaCl, 100 mM EDTA, 10 mM tris, 1% Triton x-100, 10% DMSO, pH 13) for 48 h. After lysis, the slides were left in an alkaline electrophoresis buffer ([…] and […] EDTA disodium salt, pH 13) for 20 min to unroll the DNA and then subjected to electrophoresis in a horizontal vat for 20 min, with a current of ± 300 mA and potential difference of 32 V. After electrophoresis, the slides were neutralized for 15 min in 0.4 M tris-HCl buffer, pH 7.5, and fixed for 5 min in absolute ethanol. The slides were stained with 100 µL of a 1 µg/mL acridine orange solution. All test steps were carried out under red light. To analyze damage levels, 100 nucleoids from each animal were evaluated for damage level. For this, each nucleoid was classified into one of five classes according to the proportion of DNA in the comet’s tail and head: 0 (no damage); 1 (little apparent damage); 2 (medium damage); 3 (medium damage with longer tail); and 4 (maximum damage). The Damage Index (DI) was thus calculated according to the formula DI=0×nºclass comets 0+1×nºclass comets 1+2×nºclass comets 2+3×nºclass comets 3+4×(nºclass comets 4)
Thus, the values obtained could range from 0 (no damage) to 400 (maximum damage). Additionally, the Frequency of damage (FD) was calculated based on the percentage of all nucleoids with some damage (class 1 to class 4) relative to the total number of nucleoids counted per animal: FD=nºofdamaged comets−nºclass comets 0×100/(nºtotal)

[2] = tested on: polychromatic erythrocytes (PCE) from Swiss mice; experiment: Micronucleus assay in vivo; parameters: species or system Mus musculus; conditions: intraperitoneally, 500, 1000 and 2000 mg/kg, blood 48 h after administration
Description: as §1, with “Immediately after blood collection, the animals were euthanized with high doses of anesthetics (ketamine 300 mg/kg and xylazine 30 mg/kg). The in vivo experiments were approved by the Ethics Committee on the Use of Animals (CEUA) of the Federal University of Pernambuco, under process no. 004/2023.” left out
The same mice from the comet test (females n = 40) were used, equally with the 8 experimental groups mentioned above. […] Two slides were prepared per animal, in which 2000 polychromatic erythrocytes (PCE) were analyzed for the presence of micronuclei. The analysis was carried out using a Zeiss Axio Imager M2 fluorescence microscope, with a 40× objective and Alexa Fluor 488 filter (Carl Zeiss AG™, Germany).

[3] = parameters: method as in PMID 35934135; conditions: cited from earlier work; for toxicity category, Globally Harmonized System of Classification and Labelling of Chemicals: acute toxicity; for deaths in acute toxicity experiments: dose of 2000 mg/kg

CC1(C)CCC2=C(O1)c1ccccc1/C(=N/NC(=S)Nc1ccc([N+](=O)[O-])cc1)C2=O [BV3, 2-(2,2-dimethyl-5-oxo-3,4-dihydro-2H-benzo[h]chromen-6(5H)-ylidene)-N-(4nitrophen-yl)thio-carbohydrazide]
morphological changes (HeLa cells): reduced cellular volume, cells with condensed chromatin, and cellular debris | damage frequency (comet assay) compared to negative control ([1]; 2000 mg/kg): decrease | damage index (comet assay) compared to negative control ([1]; 2000 mg/kg): decrease | damage frequency (comet assay) compared to negative control ([1]; 500 and 1000 mg/kg): no significant differences | damage index (comet assay) compared to negative control ([1]; 500 and 1000 mg/kg): no significant differences | number of micronuclei compared to negative control [2]: no differences | toxicity category, Globally Harmonized System of Classification and Labelling of Chemicals [3]: Category 5 | deaths in acute toxicity experiments [3]: no deaths

Cc1ccc(NC(=S)N/N=C2\C(=O)C3=C(OC(C)(C)CC3)c3ccccc32)cc1 [BV5, 2-(2,2-dimethyl-5-oxo-3,4-dihydro-2H-benzo[h]chromen-6(5H)-ylidene)-N-(p-tolyl)-thiocarbohydrazide]
morphological changes (HeLa cells): loss of membrane integrity, reduced cellular volume, presence of fragmented/pyknotic nuclei, chromatin condensation, and cellular debris | frequency of damage (comet assay) ([1]; any of the tested doses (500, 1000, 2000 mg/kg)): no difference | damage index (comet assay) compared to negative control ([1]; 2000 mg/kg): increase | damage index (comet assay) compared to negative control ([1]; 500 and 1000 mg/kg): no differences | number of micronuclei compared to negative control [2]: no differences | toxicity category, Globally Harmonized System of Classification and Labelling of Chemicals [3]: Category 5 | deaths in acute toxicity experiments [3]: no deaths
